Measured values: US12691107B2, “Methods for the treatment and prevention of lung infections caused by gram-positive bacteria, fungus, or virus by administration of tafenoquine” (priority 2020, dated 2026)
Read-outs that look alike come from different tables or passages of the source.

Key:
[1] = rat, in vivo, 125 mg/kg; cited from earlier work
Vero E6 cells = settings: African green monkey
[2] = Tissue distribution of [14C]radio-labeled tafenoquine in male rats; type: in vivo, rat; settings: for concentration of tafenoquine in lung: 25 mg base/kg single oral dose
Experimental: FIG. 3: Concentration of tafenoquine in microgram equivalents per g of tissue in various tissues of male rats 12 h following administration of [14C]radio-labeled tafenoquine (25 mg base/kg). Radioactivity was measured in the combusted organs of euthanized rats by liquid scintillation analysis.
In this study, a single oral dose of [14C]radio-labeled tafenoquine (25 mg base/kg) was given to 60 male rats, and then groups of 5 animals were killed at time points ranging from 30 minutes to 120 hours post-dose. Radioactivity in the combusted organs of killed animals was measured by liquid scintillation analysis. When expressed as microgram equivalents tafenoquine per gram of tissue, the concentration of tafenoquine in lung were at 0.5, 1, 6, 12, 24, 48, 72, 96, and 120 hours post-administration were 1.21, 6.43, 133, 154, 136, 119, 83.7, 59.4, and 44.4, respectively.

SARS-CoV-2 = test: microbe, parasite or virus in culture; type: cell-based; settings: Severe acute respiratory syndrome coronavirus 2, Vero C1008; Vero E6, moi 0.05, 48 hours, TCID50
[3] = test system: HFF, mouse embryo fibroblast and Guinea Pig Lung cells; settings: range over all three cytomegalovirus assays
[4] = test system: Aspergillus fumigatus clinical isolate 293 (Af293); test: Prophylactic efficacy in Aspergillus-infected immunosuppressed mice; type: in vivo, ICR mice; settings: 2.5 or 5.0 mg/kg/day oral from day -2 through day +7
MCMV strain Smith = test: MCMV qPCR assay in mouse embryo fibroblast cells; type: cell-based; settings: 168 h, 7 d
Aspergillus flavus = test: Antifungal MIC (RPMI-1640 microdilution); type: cell-based
P. variotii = test: Antifungal MIC (RPMI-1640 microdilution); type: cell-based; settings: Paecilomyces variotii, isolate MYA-3630
Staphylococcus aureus = test: Antibacterial MIC (broth microdilution); type: cell-based
C. krusei = test: Antifungal MIC (RPMI-1640 microdilution); type: cell-based; settings: Pichia kudriavzevii, isolate ATCC 6258
Blastomyces dermatitidis = test: Antifungal MIC (RPMI-1640 microdilution); type: cell-based
E. coli = test: Antibacterial MIC (broth microdilution); type: cell-based
Experimental: Growth Medium—Cation adjusted Mueller-Hinton broth was used as the test medium. Broth for panel preparation was prepared from commercial dehydrated medium (Difco formulation, BD Diagnostics, catalog number 275730).
Dilution of Investigational Agents—Polystyrene test tubes were used to prepare the drug dilutions and sterile U-shaped 96-well polystyrene microtiter trays were used for performing the MIC assays. Stock solutions of the investigational agents were prepared at concentrations 100-times the highest concentration to be tested (6400-1.25 μg/ml) using dimethyl sulfoxide. Aliquots of the stock solutions were dispensed into polypropylene vials and stored at −20° C. Further dilutions (1:50) were made in the culture medium (cation-adjusted Mueller-Hinton medium).
After the dilutions of the working 2-fold investigational antibacterial solutions were prepared, 50 μL of each concentration was transferred into rows of the first 10 wells of each 12-well column of the U-shaped disposable 96-well microtiter trays using a multichannel pipettor. The 11th well in each row served as the sterility control, and the 12th well contained only culture medium to serve as the growth control for each isolate. In like manner, the control drug for the organism being tested was prepared in a separate 96 well panel exactly as described above. A 50 μL volume of the standardized inoculum suspension of each test isolate was prepared in culture medium to directly inoculate each test well of the drug containing microtiter tray.
Inoculum Preparation—Colonies of each strain generated on sheep blood agar plates with overnight growth at 35° C. in ambient air were used to directly prepare a suspension equivalent in density to the 0.5 McFarland opacity standard. The exact turbidity of each suspension was determined using a desktop portable photometer. For panels containing 2× drug concentrations, a 1:100 dilution of the McFarland organism suspension was prepared in cation-adjusted Mueller-Hinton broth and 50 μL aliquots of each test (and control) strain was added to each well of the designated rows of the microtiter trays using a multichannel pipettor. The target inoculum concentration was 5×10^5 CFU/ml in each well.
Trays were removed and each well were inspected for evidence of growth (turbidity). The MIC was defined as the lowest concentration of the investigational agent and the control drug that prevents visibly discernible growth in the test wells.

Candida parapsilosis = test: Antifungal MIC (RPMI-1640 microdilution); type: cell-based; settings: for MIC50 / MIC: Lodderomyces parapsilosis
K. pneumoniae = test: Antibacterial MIC (broth microdilution); type: cell-based; settings: Klebsiella pneumoniae

What does the source list for `COc1cc(C)c2c(Oc3cccc(C(F)(F)F)c3)c(OC)cc(NC(C)CCCN)c2n1` (stereo not shown) [Tafenoquine, N(4)-[2,6-Dimethoxy-4-methyl-5-[3-(trifluoromethyl)phenoxy]quinolin-8-yl]pentane-1,4-diamine]?
Maximum plasma concentration following a single 125 mpk dose in female rats [1]: 2240 ng/mL; CC50 (Vero E6 cells): 37.2 µM; concentration of tafenoquine in lung ([2]; 0.5 hours post-administration): 1.21 microgram equivalents tafenoquine per gram of tissue; concentration of tafenoquine in lung ([2]; 1 hour): 6.43 microgram equivalents tafenoquine per gram of tissue; concentration of tafenoquine in lung ([2]; 6 hours): 133 microgram equivalents tafenoquine per gram of tissue; concentration of tafenoquine in lung ([2]; 12 hours): 154 microgram equivalents tafenoquine per gram of tissue; concentration of tafenoquine in lung ([2]; 24 hours): 136 microgram equivalents tafenoquine per gram of tissue; concentration of tafenoquine in lung ([2]; 48 hours): 119 microgram equivalents tafenoquine per gram of tissue; concentration of tafenoquine in lung ([2]; 72 hours): 83.7 microgram equivalents tafenoquine per gram of tissue; concentration of tafenoquine in lung ([2]; 96 hours): 59.4 microgram equivalents tafenoquine per gram of tissue; concentration of tafenoquine in lung ([2]; 120 hours): 44.4 microgram equivalents tafenoquine per gram of tissue; lung:blood concentration ratio ([2]; rat): 250; ratio of lung:plasma concentrations ([2]; rat): ~650; tissue accumulation ([2]; rat, FIG. 3): accumulate in lung more than any other tissue in the body; EC50 (SARS-CoV-2): 2.6 µM; CC50s [3]: 13 to 17 µM; pulmonary fungal burden [4]: dose-related, albeit non-statistically significant trend towards reduced fungal burden; survival versus vehicle control ([4]; followed until day 12): no statistical differences in survival; EC50 (MCMV strain Smith): > 6 µM

Which MIC50 (Aspergillus flavus; ATCC204304, read-out: MIC 50% inhibition, isolate ATCC 204304) does the source give for `COc1cc(C)c2c(Oc3cccc(C(F)(F)F)c3)c(OC)cc(NC(C)CCCN)c2n1.O=C(O)CCC(=O)O` (stereo not shown) [Tafenoquine Succinate] here?
The MIC50 was 4 µg/mL.

And the MIC (Aspergillus flavus; ATCC204304, read-out: MIC 100% inhibition, isolate ATCC 204304)?
Its MIC is 4 µg/mL.

And the MIC50 (Aspergillus flavus; read-out: MIC 50% inhibition, isolate Aflav2)?
Its MIC50 is 8 µg/mL.

What about the MIC50 (Aspergillus flavus; read-out: MIC 50% inhibition, isolate Aflav3) of the same compound?
Its MIC50 is 4 µg/mL.

What about the MIC (Aspergillus flavus; read-out: MIC 100% inhibition, isolate Aflav2) of the same compound?
The MIC was 16 µg/mL.

And the MIC (Aspergillus flavus; read-out: MIC 100% inhibition, isolate Aflav3)?
Its MIC is 8 µg/mL.

And the MIC50 (P. variotii; read-out: MIC 50% inhibition)?
Its MIC50 is 4 µg/mL.

What about the MIC (P. variotii; read-out: MIC 100% inhibition) of the same compound?
Its MIC is 4 µg/mL.

And the MIC (Staphylococcus aureus; Staphylococcus aureus, ATCC29213, isolate ATCC 29213, read-out: MIC)?
The MIC was 8 µg/mL.

And the MIC (Staphylococcus aureus; Staphylococcus aureus, isolate 6215, read-out: MIC)?
The MIC was 8 µg/mL.

What about the MIC (Staphylococcus aureus; isolate 6229) of the same compound?
The MIC was 8 µg/mL.

What about the MIC50 (C. krusei; ATCC6258, read-out: MIC 50% inhibition) of the same compound?
The MIC50 was 4 µg/mL.

And the MIC (C. krusei; ATCC6258, read-out: MIC 100% inhibition)?
Its MIC is 4 µg/mL.

And the MIC50 (Blastomyces dermatitidis; read-out: MIC 50% inhibition, isolate Blasto1)?
Its MIC50 is 1 µg/mL.

And the MIC50 (Blastomyces dermatitidis; read-out: MIC 50% inhibition, isolate Blasto2)?
Its MIC50 is 4 µg/mL.

And the MIC50 (Blastomyces dermatitidis; read-out: MIC 50% inhibition, isolate Blasto3)?
The MIC50 was 8 µg/mL.

And the MIC (Blastomyces dermatitidis; read-out: MIC 100% inhibition, isolate Blasto1)?
The MIC was 2 µg/mL.

What about the MIC (Blastomyces dermatitidis; read-out: MIC 100% inhibition, isolate Blasto2) of the same compound?
Its MIC is 4 µg/mL.

What about the MIC (Blastomyces dermatitidis; read-out: MIC 100% inhibition, isolate Blasto3) of the same compound?
The MIC was 8 µg/mL.

And the MIC (E. coli; Escherichia coli, ATCC25922, isolate ATCC 25922, read-out: MIC)?
Its MIC is > 64 µg/mL.

And the MIC (E. coli; Escherichia coli, isolate J4243 (MO72), read-out: MIC)?
The MIC was > 64 µg/mL.

And the MIC (E. coli; isolate J4244 (JJ1886))?
The MIC was >64 µg/mL.

And the MIC50 (Candida parapsilosis; ATCC22019, read-out: MIC 50% inhibition, isolate ATCC 22019)?
The MIC50 was 4 µg/mL.

And the MIC (Candida parapsilosis; ATCC22019, read-out: MIC 100% inhibition, isolate ATCC 22019)?
Its MIC is 4 µg/mL.

And the MIC50 (Candida parapsilosis; read-out: MIC 50% inhibition, isolate CP1)?
The MIC50 was 4 µg/mL.

What about the MIC (Candida parapsilosis; read-out: MIC 100% inhibition, isolate CP1) of the same compound?
Its MIC is 4 µg/mL.

And the MIC (Candida parapsilosis; read-out: MIC 100% inhibition, isolate CP2)?
Its MIC is 4 µg/mL.

And the MIC (Candida parapsilosis; read-out: MIC 100% inhibition, isolate CP3)?
Its MIC is 8 µg/mL.

What about the “MIC 50% inhibition” value (Candida parapsilosis; isolate CP2) of the same compound?
The value was 4 µg/mL.

What about the “MIC 50% inhibition” value (Candida parapsilosis; isolate CP3) of the same compound?
Its value is 4 µg/mL.

And the MIC (K. pneumoniae; ATCC70063, isolate ATCC 70063)?
Its MIC is > 64 µg/mL.

What about the MIC (K. pneumoniae; isolate AR-97) of the same compound?
Its MIC is > 64 µg/mL.

What about the MIC (K. pneumoniae; isolate AR-113) of the same compound?
Its MIC is > 64 µg/mL.
